Experimental data from PMC5697638, “Identification of a Potent Phosphoinositide 3‐Kinase Pan Inhibitor Displaying a Strategic Carboxylic Acid Group and Development of Its Prodrugs” (Chemmedchem, 2017).

Key:
PC3 cells = test: PC3 cell proliferation (MTT); format: cell-based; set-up: key to Cell proliferation: active: Active: able to reduce proliferation to an extent greater than 50 %; inactive: able to reduce proliferation to an extent less than 50 %; conditions: PC3 cells, 10 μM of each prodrug
Experimental: The biological activity of each prodrug was tested by analyzing their ability to decrease PC3 proliferation as a rapid test to evaluate the PI3Ks inhibitory activity after hydrolysis in a cell‐based assay. […] The choice of using such a cut‐off was due to the intent to identify rapidly which prodrug could be hydrolyzed in the assay to release the active compound. As expected, a good correlation between rate of hydrolysis and cellular activity was observed, and esters 64–68 and 70–73 were determined to be good candidates for topical use. We decided to focus our attention on ester 64, as its half‐life was a good compromise for a prodrug. The EC50 value of this ester was then evaluated on PC3 cells, and a value of (2.3±0.8) μM was obtained.
Cell proliferation: PC3 cell proliferation was measured with a 3‐(4,5‐dimethyl thiazol‐2‐yl)‐2,5‐diphenyltetrazolium bromide (MTT)‐based colorimetric assay (#11 465 007 001 Roche Diagnostic GmbH, Germany). PC3 cells were seeded in a 96‐well plate at a concentration of 10^4 cells mL^−1. PC3 cells were treated for 72 h with increasing concentrations of 64, and MTT was added. After ON solubilization of the MTT metabolite, formazan, the absorbance (λ=550–600 nm absorbance, with a reference wavelength of 650 nm) of each well was read in a multi‐well reader (Glomax multi detection system, Promega, model number 9301‐010). The percentage of proliferating cells was calculated by relating each absolute value to the control intended as PC3 cells treated with DMSO alone. An IC50 value was then derived by plotting all data on a dose–response curve (Graph Pad software) by using nonlinear regression fit (equation [log agonist] versus response).

[1] = metabolic stability in rat liver microsomes (RLM); format: in vitro ADME; conditions: RLM, 50 μM substrate, with NADPH; for Residual microsomal substrate (t=60 min): LC–UV
Experimental: (§1) Twelve esters were prepared (see the Experimental Section for their synthesis and the Supporting Information for chromatographic methods) and evaluated in terms of metabolic stability. For this task, a combined approach based on microsomal and plasmatic stability assays was exploited considering the relevance of the plasmatic and hepatic tissues in esterase activity. Microsomal stability of the selected esters was evaluated by monitoring the disappearance of the substrate incubated in rat liver microsomes (RLM) at 50 μM concentration, in the presence of NADPH. In Table 4, the percentage of the remaining substrate, after incubation (t=60 min), with respect to the initial amount is reported. Overall, the compounds underwent a relevant metabolic transformation, and the substrate depletion ranged from 0 (for 76) to 100 % (for 70). This is mainly due to hydrolysis of the ester function, whereas the metabolites arising from the oxidation catalyzed by the NADPH‐dependent monooxygenase system were negligible from a quantitative point of view. Indeed, the main metabolite formed during the incubation of the esters was corresponding carboxyl derivative 37. […] Moreover, whereas CH2‐pyridin‐4‐yl ester 70 was completely metabolized, corresponding benzyl derivative 65 and piperonyl derivative 72 were more hydrolytically stable, and their residual substrates were 53 and 83 %, respectively. The hydrolytic stability of the selected esters was also evaluated by monitoring the depletion of the substrate incubated at a 50 μM concentration in mouse plasma over a period of 30 min. As expected, the plasmatic metabolic fate of the esters was characterized by the formation of 37 as the only metabolite (see Figure S4). The rate constant k [min^−1], derived for the substrate peak area versus time curve (single‐exponential decay equation—GraphPad Prism software, Inc., San Diego, CA (USA); see Figure S5) was used to calculate the in vitro half‐life t 1/2 [min], and the values are reported in Table 4.
Metabolic stability of PI3K inhibitors in RLM fraction
The standard incubation mixture (500 µL final volume), in 1.5 mL Eppendorf tubes, was carried out in a 50 mM TRIS-HCl buffer (pH 7.4) containing 3.3 mM MgCl2, 1.3 mM NADPNa2, 3.3 mM glucose 6-phosphate, 0.4 Units/mL glucose 6-phosphate dehydrogenase (NADPH regenerating system), acetonitrile as cosolvent (1% of final volume) and 50 µM of substrate. After pre-equilibration of the mixture, an appropriate volume of rat microsomal suspension was added to give a final protein concentration of 1 mg/mL. The mixture was shaken for 1 hour at 37°C and the reaction was quenched by diluting the samples with 500 µL of ice-cold acetonitrile. The samples were then centrifuged at 13,000 rpm for 10 min, and the supernatant was directly injected onto the HPLC column for analysis. Control incubations were performed without microsomes. […]
(§2) A Shimadzu HPLC system (Shimadzu, Kyoto, Japan), consisting of two LC-10AD Vp module pumps, an SLC-10A Vp system controller, an SIL-10AD Vp autosampler, and a DGU-14-A on-line degasser was used for the analysis. All the chromatographic separations were performed on a Phenomenex Luna C18 5µm (150 x 4.6 mm i.d.) (Phenomenex srl, Castel Bolognese, Italy) as a stationary phase protected by a Luna C18 SecurityGuard (Phenomenex srl). The SPD-M10Avp photodiode array detector was used to detect the analyte at 254 nm. LC Solution 1.24 software was used to process the chromatograms. Aliquots (20 µL) of supernatants obtained from incubations were injected onto the HPLC system and eluted with a mobile phase (flow rate: 1 mL/min) consisting of solvent A- 0.5% aqueous formic acid solution and solvent B- acetonitrile/methanol 80:20.
(§3) The eluants were filtered through a 0.45-µm pore size polyvinylidene difluoride membrane […]
(§4) The following gradients programs were used: […]

[2] = stability in mouse plasma; format: in vitro ADME; conditions: 50 μM substrate; for half-life at 50 µM: mouse, mouse plasma, 30 min incubation, 37 °C, read-out: Mouse plasma t 1/2
Experimental: as §1, with “4. […]” for “4.”
Stability of PI3K inhibitors in mouse plasma
An aliquot of 460 µL of blank plasma spiked with substrate (50 µM, final concentration, DMSO 5%) was incubated at 37 °C for 30 minutes. Aliquots (70 µL) of the incubation took at 0-2-5-10-20, and 30 minutes were diluted with 140 µL of acetonitrile, homogenized, and centrifuged at 13,000 rpm for five minutes. Supernatants (20 µL) were injected onto HPLC.
as §2, §3, §4

Compound | Residual microsomal substrate (t=60 min) [1] [%] | half-life at 50 µM [2] [min] | hydrolysis by mouse plasma hydrolases ([2]; 30 min) | substrate depletion ([1]; 60 min) [%] | Cell proliferation (PC3 cells)
O=C(OCc1ccccc1)c1cccc(Cn2cc(-c3cccc4c(=O)cc(N5CCOCC5)[nH]c34)nn2)c1 [Compound 65, Benzyl 3‐{[4‐(2‐morpholino‐4‐oxo‐1,4‐dihydroquinolin‐8‐yl)‐1H‐1,2,3‐triazol‐1‐yl]methyl}benzoate] | 53 | < 1 |  |  | active
CC(C)OC(=O)c1cccc(Cn2cc(-c3cccc4c(=O)cc(N5CCOCC5)[nH]c34)nn2)c1 [Compound 66, Isopropyl 3‐{[4‐(2‐morpholino‐4‐oxo‐1,4‐dihydroquinolin‐8‐yl)‐1H‐1,2,3‐triazol‐1‐yl]methyl}benzoate] | 16 | 15.1 |  |  | active
CC(C)(C)OC(=O)c1cccc(Cn2cc(-c3cccc4c(=O)cc(N5CCOCC5)[nH]c34)nn2)c1 [Compound 69, tert ‐Butyl 3‐{[4‐(2‐morpholino‐4‐oxo‐1,4‐dihydroquinolin‐8‐yl)‐1H‐1,2,3‐triazol‐1‐yl]methyl}benzoate] | 79 |  | inert to the mouse plasma hydrolases |  | inactive
O=C(OCc1ccncc1)c1cccc(Cn2cc(-c3cccc4c(=O)cc(N5CCOCC5)[nH]c34)nn2)c1 [Compound 70, Pyridin‐4‐ylmethyl 3‐{[4‐(2‐morpholino‐4‐oxo‐1,4‐dihydroquinolin‐8‐yl)‐1H‐1,2,3‐triazol‐1‐yl]methyl}benzoate] | 0 | < 1 |  | 100 | active
O=C(OCc1ccc2c(c1)OCO2)c1cccc(Cn2cc(-c3cccc4c(=O)cc(N5CCOCC5)[nH]c34)nn2)c1 [Compound 72, Benzo[d][1,3]dioxol‐5‐yl methyl 3‐{[4‐(2‐morpholino‐4‐oxo‐1,4‐dihydroquinolin‐8‐yl)‐1H‐1,2,3‐triazol‐1‐yl]methyl}benzoate] | 83 | < 1 |  |  | active
CCCC(C)OC(=O)c1cccc(Cn2cc(-c3cccc4c(=O)cc(N5CCOCC5)[nH]c34)nn2)c1 (stereo not drawn) [Compound 74, Pentan‐2‐yl 3‐{[4‐(2‐morpholino‐4‐oxo‐1,4‐dihydroquinolin‐8‐yl)‐1H‐1,2,3‐triazol‐1‐yl]methyl}benzoate] | 60 | 4.2 |  |  | inactive

More lines, main results first:

Residual microsomal substrate (t=60 min) [1] [%] | half-life at 50 µM [2] [min] | hydrolysis by mouse plasma hydrolases ([2]; 30 min) | substrate depletion ([1]; 60 min) [%] | Compound | Cell proliferation (PC3 cells)
24 |  |  |  | CCOC(=O)c1cccc(Cn2cc(-c3cccc4c(=O)cc(N5CCOCC5)[nH]c34)nn2)c1 [Compound 67, Ethyl 3‐{[4‐(2‐morpholino‐4‐oxo‐1,4‐dihydroquinolin‐8‐yl)‐1H‐1,2,3‐triazol‐1‐yl]methyl}benzoate] | active
53 | < 1 |  |  | CCCCOC(=O)c1cccc(Cn2cc(-c3cccc4c(=O)cc(N5CCOCC5)[nH]c34)nn2)c1 [Compound 68, Butyl 3‐{[4‐(2‐morpholino‐4‐oxo‐1,4‐dihydroquinolin‐8‐yl)‐1H‐1,2,3‐triazol‐1‐yl]methyl}benzoate] | active
18 | 2.5 |  |  | O=C(OCCN1CCOCC1)c1cccc(Cn2cc(-c3cccc4c(=O)cc(N5CCOCC5)[nH]c34)nn2)c1 [Compound 71, 2‐Morpholinoethyl 3‐{[4‐(2‐morpholino‐4‐oxo‐1,4‐dihydroquinolin‐8‐yl)‐1H‐1,2,3‐triazol‐1‐yl]methyl}benzoate] | active
39 | < 1 |  |  | CC(C)CCOC(=O)c1cccc(Cn2cc(-c3cccc4c(=O)cc(N5CCOCC5)[nH]c34)nn2)c1 [Compound 73, Isopentyl 3‐{[4‐(2‐morpholino‐4‐oxo‐1,4‐dihydroquinolin‐8‐yl)‐1H‐1,2,3‐triazol‐1‐yl]methyl}benzoate] | active
